In one series the test system is MPNST cells. Briefly: Colony formation assay. Type of series: cell-based, human. As to conditions: for IC50: Homo sapiens, 24 h.
The next series has as its system CDK9. As to conditions: cited from earlier work.
The conditions of series [1]: human plasma; cited from earlier work.
For series [2] the following is noted: patients, cited from earlier work.
In series [3] the test system is dedifferentiated liposarcoma cell lines, with amplified CDK4. Description: Sensitivity of liposarcoma cell lines. Type of series: cell-based, human. As to conditions: prior observations, data not shown.
For the next series, the system named is CDK6. The following applies: cited from earlier work.
The test system of a further series is CDK2. As to conditions: cited from earlier work.
The next series has as its system CDK4. As to conditions: cited from earlier work.
Series [4] is described as follows: Flavopiridol plasma pharmacokinetics in phase I trial. The series is classed as in vivo, human.

As a reminder, the IC50 is the concentration that gives 50% inhibition. In the case of `COc1cccc2c1C(=O)c1c(O)c3c(c(O)c1C2=O)C[C@@](O)(C(=O)CO)C[C@@H]3O[C@H]1C[C@H](N)[C@H](O)[C@H](C)O1` [doxorubicin], half-maximal inhibition in the series on MPNST cells (IC50) required 15 nM.

The Cmax is the peak of the concentration-time curve. `CN1CC[C@H](c2c(O)cc(O)c3c(=O)cc(-c4ccccc4Cl)oc23)[C@H](O)C1` [flavopiridol]: the “inhibition of CDK9” value with CDK9 was “nanomolar concentrations”. Moreover, the “protein binding in plasma” value in [1] was 90%. The “MTD, single agent bolus schedule” value in series [2] (approximate) was about 70 mg/m^2. In addition, the “MTD, single agent divided dose flavopiridol therapy” value in [2] (bolus followed by infusion) is 90 mg/m^2. Further, in series [3], the sensitivity to flavopiridol result was “highly sensitive”. Also, the “inhibition of CDK6” value with CDK6 is on record as “nanomolar concentrations”. Besides, the “inhibition of CDK2” value in the series on CDK2 is recorded as “nanomolar concentrations”. The same compound registered an IC50 with MPNST cells of 150 nM. The “colony formation (percentage of untreated controls)” value with MPNST cells (MPNST cells, flavopiridol alone 150 nM 24 hours, colonies after 10 days) came out at 59%. Also, the “inhibition of CDK4” value in the series on CDK4 is on record as “nanomolar concentrations”. Further, the “time point at which Cmax was observed” value in series [4] (first time point analyzed in each schedule) stood at 0.5 h. The compound further gave a peak concentration (Cmax) in series [4] (human, plasma, intravenous, Mean Cmax, cycle 1, cohort 8 (doxorubicin 60, flavopiridol 90 (50/40) mg/m^2), n 4) of 3.33 µM.

The values are drawn from paper PMC3343204 (Clinical Cancer Research, 2012).
